In paper PMC8550792, “Evolution of kinase polypharmacology across HSP90 drug discovery” (Cell Chemical Biology, 2021):
Read-outs that look alike come from different tables or passages of the source.

Columns and labels:
Assay in all cases: biochemical
Type in all cases: biochemical
382 unique human kinases [1] = target: T1, 382 unique human kinases (Homo sapiens, UniProt P12931, T341M); conditions: kinase c-Src (T341M), compound 10 uM; for remaining activity at 10 µM: read-out: % Enzyme Activity (relative to DMSO controls)
T1 construct: purchased Reaction Biology (HotSpot contract assay)

382 unique human kinases [2] = target: T2, 382 unique human kinases (Homo sapiens, UniProt P09619); conditions: kinase PDGFRb, compound 10 uM; for remaining activity at 10 µM: read-out: % Enzyme Activity (relative to DMSO controls)
T2 construct: purchased Reaction Biology (HotSpot contract assay)

382 unique human kinases [3] = target: T3, 382 unique human kinases (Homo sapiens, UniProt P00533, L747S); conditions: kinase EGFR (L747S), compound 10 uM; for remaining activity at 10 µM: read-out: % Enzyme Activity (relative to DMSO controls)
T3 construct: purchased Reaction Biology (HotSpot contract assay)

382 unique human kinases [4] = target: T4, 382 unique human kinases (Homo sapiens, UniProt Q16566); conditions: kinase CAMK4, compound 10 uM; for remaining activity at 10 µM: read-out: % Enzyme Activity (relative to DMSO controls)
T4 construct: purchased Reaction Biology (HotSpot contract assay)
T4 sequence (Q16566 1-473): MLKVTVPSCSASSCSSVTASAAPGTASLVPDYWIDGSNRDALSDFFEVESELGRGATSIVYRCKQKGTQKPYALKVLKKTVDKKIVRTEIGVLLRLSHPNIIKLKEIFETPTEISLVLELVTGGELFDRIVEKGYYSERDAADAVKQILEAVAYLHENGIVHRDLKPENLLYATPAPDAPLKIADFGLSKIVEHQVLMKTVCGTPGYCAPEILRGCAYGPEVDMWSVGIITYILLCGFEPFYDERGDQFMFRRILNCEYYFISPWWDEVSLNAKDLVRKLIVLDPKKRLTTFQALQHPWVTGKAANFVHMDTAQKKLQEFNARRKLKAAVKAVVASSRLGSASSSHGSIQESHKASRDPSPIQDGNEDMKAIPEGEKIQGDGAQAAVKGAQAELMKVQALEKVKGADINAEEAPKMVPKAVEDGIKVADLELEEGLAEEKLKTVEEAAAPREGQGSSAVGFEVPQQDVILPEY

382 unique human kinases [5] = target: T5, 382 unique human kinases (Homo sapiens, UniProt O14920); conditions: IKKb/IKBKB, 10 uM; for remaining activity at 10 µM: read-out: % Enzyme Activity (relative to DMSO controls)
T5 construct: purchased Reaction Biology (HotSpot contract assay)
T5 sequence (O14920 1-756): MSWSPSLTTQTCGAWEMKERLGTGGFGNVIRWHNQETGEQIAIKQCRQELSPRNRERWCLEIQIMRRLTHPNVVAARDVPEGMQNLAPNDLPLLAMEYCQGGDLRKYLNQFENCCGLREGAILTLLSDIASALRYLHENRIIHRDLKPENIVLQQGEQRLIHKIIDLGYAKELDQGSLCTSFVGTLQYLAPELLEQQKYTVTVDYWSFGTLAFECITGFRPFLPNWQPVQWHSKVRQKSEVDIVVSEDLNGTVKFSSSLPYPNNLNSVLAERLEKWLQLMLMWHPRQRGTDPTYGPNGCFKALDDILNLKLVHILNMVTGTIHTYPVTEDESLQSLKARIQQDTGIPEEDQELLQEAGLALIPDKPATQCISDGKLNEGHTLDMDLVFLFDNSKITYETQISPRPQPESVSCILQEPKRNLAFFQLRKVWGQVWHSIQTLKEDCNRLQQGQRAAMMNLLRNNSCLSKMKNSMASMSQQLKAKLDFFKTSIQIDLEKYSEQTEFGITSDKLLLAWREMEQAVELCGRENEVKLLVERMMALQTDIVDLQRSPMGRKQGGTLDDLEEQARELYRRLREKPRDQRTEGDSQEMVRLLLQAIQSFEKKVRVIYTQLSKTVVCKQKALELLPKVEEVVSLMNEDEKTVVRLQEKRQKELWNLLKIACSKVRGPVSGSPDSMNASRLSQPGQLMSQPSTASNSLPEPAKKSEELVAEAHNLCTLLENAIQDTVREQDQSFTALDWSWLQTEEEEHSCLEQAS

382 unique human kinases [6] = target: T6, 382 unique human kinases (Homo sapiens, UniProt P49759); conditions: CLK1, 10 uM; for remaining activity at 10 µM: read-out: % Enzyme Activity (relative to DMSO controls)
T6 construct: purchased Reaction Biology (HotSpot contract assay)

382 unique human kinases [7] = target: T7, 382 unique human kinases (Homo sapiens, UniProt Q9Y243, G171R); conditions: AKT3 (G171R), 10 uM; for remaining activity at 10 µM: read-out: % Enzyme Activity (relative to DMSO controls)
T7 construct: purchased Reaction Biology (HotSpot contract assay)

382 unique human kinases [8] = target: T8, 382 unique human kinases (Homo sapiens, UniProt Q13131); conditions: for remaining activity at 10 µM: read-out: % Enzyme Activity (relative to DMSO controls)
T8 construct: purchased Reaction Biology (HotSpot contract assay)

382 unique human kinases [9] = target: T9, 382 unique human kinases (Homo sapiens, UniProt Q96SB4); conditions: SRPK1, 10 uM; for remaining activity at 10 µM: read-out: % Enzyme Activity (relative to DMSO controls)
T9 construct: purchased Reaction Biology (HotSpot contract assay)

382 unique human kinases [10] = target: T10, 382 unique human kinases (Homo sapiens, UniProt P10721, D816E); conditions: c-Kit (D816E), [ATP] 50 µM, compound 10 uM; for remaining activity at 10 µM: read-out: % Enzyme Activity (relative to DMSO controls)
T10 construct: purchased Reaction Biology (HotSpot contract assay)

382 unique human kinases [11] = target: T11, 382 unique human kinases (Homo sapiens, UniProt O95819); conditions: HGK/MAP4K4, 10 uM; for remaining activity at 10 µM: read-out: % Enzyme Activity (relative to DMSO controls)
T11 construct: purchased Reaction Biology (HotSpot contract assay)

382 unique human kinases [12] = target: T12, 382 unique human kinases (Homo sapiens, UniProt Q5S007); conditions: LRRK2, [ATP] 30 µM, compound 10 uM; for remaining activity at 10 µM: read-out: % Enzyme Activity (relative to DMSO controls)
T12 construct: purchased Reaction Biology (HotSpot contract assay)

382 unique human kinases [13] = target: T13, 382 unique human kinases (Homo sapiens, UniProt Q9P289); conditions: MST4, 10 uM; for remaining activity at 10 µM: read-out: % Enzyme Activity (relative to DMSO controls)
T13 construct: purchased Reaction Biology (HotSpot contract assay)

[14] = kinase AMPK(A1/B1/G3), compound 10 uM

T2 sequence (P09619 33-1106): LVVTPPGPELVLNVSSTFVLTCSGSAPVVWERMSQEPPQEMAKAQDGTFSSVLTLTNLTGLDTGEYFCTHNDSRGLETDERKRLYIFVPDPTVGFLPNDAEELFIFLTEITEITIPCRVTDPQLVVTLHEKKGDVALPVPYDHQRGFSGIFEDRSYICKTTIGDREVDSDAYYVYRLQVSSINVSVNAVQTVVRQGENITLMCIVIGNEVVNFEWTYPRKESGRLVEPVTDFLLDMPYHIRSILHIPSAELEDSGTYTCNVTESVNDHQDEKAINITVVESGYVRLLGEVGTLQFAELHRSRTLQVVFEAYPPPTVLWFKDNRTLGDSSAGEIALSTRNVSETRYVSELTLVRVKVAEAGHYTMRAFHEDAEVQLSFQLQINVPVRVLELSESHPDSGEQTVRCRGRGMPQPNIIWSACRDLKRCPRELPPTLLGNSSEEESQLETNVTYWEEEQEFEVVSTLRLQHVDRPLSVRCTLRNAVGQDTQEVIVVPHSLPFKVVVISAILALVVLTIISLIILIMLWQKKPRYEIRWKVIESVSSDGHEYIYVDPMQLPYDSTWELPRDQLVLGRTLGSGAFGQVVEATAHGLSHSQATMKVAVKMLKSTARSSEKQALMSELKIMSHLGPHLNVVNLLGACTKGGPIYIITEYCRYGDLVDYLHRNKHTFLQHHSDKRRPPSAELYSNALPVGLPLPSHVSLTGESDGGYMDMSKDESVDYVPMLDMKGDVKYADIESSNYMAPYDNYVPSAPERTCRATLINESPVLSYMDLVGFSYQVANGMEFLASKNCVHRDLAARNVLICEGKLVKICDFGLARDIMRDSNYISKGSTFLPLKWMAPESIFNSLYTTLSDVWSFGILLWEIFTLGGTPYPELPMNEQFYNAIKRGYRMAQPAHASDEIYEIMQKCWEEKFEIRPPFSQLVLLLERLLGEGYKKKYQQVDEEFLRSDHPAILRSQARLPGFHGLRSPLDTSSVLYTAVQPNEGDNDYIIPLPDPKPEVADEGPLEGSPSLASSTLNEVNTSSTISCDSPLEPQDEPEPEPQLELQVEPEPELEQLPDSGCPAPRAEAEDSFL
T12 sequence (Q5S007 whole entry): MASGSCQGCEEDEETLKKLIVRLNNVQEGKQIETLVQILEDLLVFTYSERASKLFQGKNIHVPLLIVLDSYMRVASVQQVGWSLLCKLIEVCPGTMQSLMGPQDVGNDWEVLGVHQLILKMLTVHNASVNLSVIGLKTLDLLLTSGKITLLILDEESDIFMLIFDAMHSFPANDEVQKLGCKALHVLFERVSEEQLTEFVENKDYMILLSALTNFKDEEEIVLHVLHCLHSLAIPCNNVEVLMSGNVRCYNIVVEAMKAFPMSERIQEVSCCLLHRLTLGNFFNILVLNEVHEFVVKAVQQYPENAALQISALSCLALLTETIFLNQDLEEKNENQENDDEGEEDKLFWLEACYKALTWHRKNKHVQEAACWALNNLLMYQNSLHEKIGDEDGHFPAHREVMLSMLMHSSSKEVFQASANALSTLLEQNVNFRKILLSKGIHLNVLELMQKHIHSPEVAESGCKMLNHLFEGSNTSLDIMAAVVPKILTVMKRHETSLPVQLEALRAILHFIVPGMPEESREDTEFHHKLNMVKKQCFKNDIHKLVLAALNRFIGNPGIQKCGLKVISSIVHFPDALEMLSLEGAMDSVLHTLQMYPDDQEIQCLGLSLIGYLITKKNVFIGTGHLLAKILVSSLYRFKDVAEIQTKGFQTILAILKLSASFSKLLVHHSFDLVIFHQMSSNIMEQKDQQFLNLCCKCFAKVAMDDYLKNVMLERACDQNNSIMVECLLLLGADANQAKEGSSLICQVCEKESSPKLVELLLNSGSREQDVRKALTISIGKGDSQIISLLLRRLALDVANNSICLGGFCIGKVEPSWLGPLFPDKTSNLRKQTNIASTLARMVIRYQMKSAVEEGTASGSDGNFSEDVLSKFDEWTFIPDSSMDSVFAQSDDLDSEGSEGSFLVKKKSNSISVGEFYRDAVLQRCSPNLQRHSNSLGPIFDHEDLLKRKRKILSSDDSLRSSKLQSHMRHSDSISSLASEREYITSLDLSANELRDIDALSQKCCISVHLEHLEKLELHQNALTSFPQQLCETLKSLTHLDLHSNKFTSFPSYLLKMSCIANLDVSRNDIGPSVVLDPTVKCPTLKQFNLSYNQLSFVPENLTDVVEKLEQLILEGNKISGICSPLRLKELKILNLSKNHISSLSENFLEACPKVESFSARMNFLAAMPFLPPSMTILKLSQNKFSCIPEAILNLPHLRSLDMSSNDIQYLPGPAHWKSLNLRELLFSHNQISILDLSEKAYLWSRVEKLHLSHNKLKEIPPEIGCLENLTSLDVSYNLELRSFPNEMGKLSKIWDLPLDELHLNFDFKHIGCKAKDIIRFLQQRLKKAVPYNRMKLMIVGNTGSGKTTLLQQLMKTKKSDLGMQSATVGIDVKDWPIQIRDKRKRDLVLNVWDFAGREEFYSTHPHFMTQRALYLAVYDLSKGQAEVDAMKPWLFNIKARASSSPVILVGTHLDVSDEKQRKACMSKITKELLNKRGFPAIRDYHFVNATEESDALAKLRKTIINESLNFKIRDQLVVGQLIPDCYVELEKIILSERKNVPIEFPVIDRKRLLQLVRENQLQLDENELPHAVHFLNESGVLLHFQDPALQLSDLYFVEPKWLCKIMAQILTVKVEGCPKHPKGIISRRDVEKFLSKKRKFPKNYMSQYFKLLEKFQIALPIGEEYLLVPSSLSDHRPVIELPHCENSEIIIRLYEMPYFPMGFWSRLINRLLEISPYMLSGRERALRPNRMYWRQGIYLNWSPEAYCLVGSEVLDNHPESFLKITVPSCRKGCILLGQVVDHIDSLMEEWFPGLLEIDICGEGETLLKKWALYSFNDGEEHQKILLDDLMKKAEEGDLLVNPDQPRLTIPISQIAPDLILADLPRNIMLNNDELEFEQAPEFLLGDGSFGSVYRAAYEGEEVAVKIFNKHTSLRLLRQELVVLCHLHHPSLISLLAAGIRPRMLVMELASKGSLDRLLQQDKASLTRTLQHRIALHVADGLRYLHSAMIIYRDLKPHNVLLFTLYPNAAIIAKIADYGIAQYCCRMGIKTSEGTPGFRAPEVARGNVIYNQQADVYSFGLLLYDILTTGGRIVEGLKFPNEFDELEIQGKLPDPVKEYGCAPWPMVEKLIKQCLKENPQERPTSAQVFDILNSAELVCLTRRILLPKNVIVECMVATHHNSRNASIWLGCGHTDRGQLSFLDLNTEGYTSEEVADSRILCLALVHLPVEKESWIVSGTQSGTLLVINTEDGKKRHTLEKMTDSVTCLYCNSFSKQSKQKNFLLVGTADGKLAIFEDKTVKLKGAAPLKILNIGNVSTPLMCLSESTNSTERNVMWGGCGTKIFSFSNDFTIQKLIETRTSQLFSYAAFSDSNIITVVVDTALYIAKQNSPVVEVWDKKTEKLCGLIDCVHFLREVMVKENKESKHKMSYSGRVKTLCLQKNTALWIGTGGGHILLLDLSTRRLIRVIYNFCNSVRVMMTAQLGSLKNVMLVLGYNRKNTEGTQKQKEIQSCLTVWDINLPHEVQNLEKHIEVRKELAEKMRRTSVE
T13 sequence (Q9P289 whole entry): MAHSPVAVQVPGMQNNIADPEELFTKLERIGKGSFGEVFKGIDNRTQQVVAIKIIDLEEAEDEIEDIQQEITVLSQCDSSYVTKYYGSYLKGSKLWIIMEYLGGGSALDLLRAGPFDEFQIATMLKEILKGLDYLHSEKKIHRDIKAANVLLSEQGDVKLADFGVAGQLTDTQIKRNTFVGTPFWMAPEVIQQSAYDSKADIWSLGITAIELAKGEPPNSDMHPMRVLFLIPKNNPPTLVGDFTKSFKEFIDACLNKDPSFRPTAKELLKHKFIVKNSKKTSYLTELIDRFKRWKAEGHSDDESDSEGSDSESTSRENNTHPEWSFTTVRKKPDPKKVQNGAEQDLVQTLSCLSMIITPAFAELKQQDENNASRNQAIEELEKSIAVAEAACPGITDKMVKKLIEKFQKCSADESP
T10 sequence (P10721 26-976 D816E): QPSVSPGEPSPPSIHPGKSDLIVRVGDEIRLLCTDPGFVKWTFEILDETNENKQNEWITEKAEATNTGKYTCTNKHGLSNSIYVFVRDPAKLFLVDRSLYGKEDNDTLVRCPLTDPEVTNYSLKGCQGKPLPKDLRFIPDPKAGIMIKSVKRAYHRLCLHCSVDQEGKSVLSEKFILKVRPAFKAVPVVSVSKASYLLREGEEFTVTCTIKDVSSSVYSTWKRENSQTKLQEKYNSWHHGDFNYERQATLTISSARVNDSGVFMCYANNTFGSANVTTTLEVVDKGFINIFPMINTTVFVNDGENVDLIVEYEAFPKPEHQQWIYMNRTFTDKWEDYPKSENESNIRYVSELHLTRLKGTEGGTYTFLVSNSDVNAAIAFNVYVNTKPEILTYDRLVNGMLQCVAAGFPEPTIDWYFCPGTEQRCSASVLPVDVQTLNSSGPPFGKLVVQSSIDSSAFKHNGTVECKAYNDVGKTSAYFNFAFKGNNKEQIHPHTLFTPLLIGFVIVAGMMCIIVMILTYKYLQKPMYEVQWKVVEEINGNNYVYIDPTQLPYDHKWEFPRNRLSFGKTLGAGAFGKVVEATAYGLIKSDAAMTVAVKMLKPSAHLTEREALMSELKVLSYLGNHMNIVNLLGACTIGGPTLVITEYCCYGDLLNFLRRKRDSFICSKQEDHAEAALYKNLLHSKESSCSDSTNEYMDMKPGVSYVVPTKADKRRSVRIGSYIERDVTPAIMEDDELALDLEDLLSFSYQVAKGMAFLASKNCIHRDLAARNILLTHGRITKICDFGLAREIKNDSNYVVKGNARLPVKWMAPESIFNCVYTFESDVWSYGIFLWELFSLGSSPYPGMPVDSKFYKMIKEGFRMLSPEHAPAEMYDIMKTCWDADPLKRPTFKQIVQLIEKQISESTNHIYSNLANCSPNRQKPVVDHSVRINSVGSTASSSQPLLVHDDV

In the case of CC(C)c1cc(-c2n[nH]c(=O)n2-c2ccc3c(ccn3C)c2)c(O)cc1O [Ganetespib (STA9090)], the remaining activity at 10 µM (382 unique human kinases [1]) is reported as 86.3%, the remaining activity at 10 µM (382 unique human kinases [2]) is reported as 92.1% and the remaining activity at 10 µM (382 unique human kinases [3]) is reported as 88%. The remaining activity at 10 µM (382 unique human kinases [4]) was 91%, the remaining activity at 10 µM (382 unique human kinases [5]) was 66.7% and the remaining activity at 10 µM (382 unique human kinases [6]) was 69.1%. It also gave a remaining activity at 10 µM (382 unique human kinases [7]) of 67.1%, a remaining activity at 10 µM (382 unique human kinases [8]; AMPK(A1/B1/G1), 10 uM) of 79.7% and a remaining activity at 10 µM (382 unique human kinases [8]; AMPK(A1/B1/G2), 10 uM) of 73.2%. It also gave a remaining activity at 10 µM (382 unique human kinases [8]; AMPK(A1/B2/G1), 10 uM) of 70.8% and a remaining activity at 10 µM (382 unique human kinases [8]; [14]) of 86.1%.
For CCNC(=O)c1noc(-c2cc(C(C)C)c(O)cc2O)c1-c1ccc(CN2CCOCC2)cc1 [Luminespib], the “% Enzyme Activity (relative to DMSO controls)” value (382 unique human kinases [9]) was 101.35%, the remaining activity at 10 µM (382 unique human kinases [9]) was 101% and the “% Enzyme Activity (relative to DMSO controls)” value (382 unique human kinases [10]) was 73.14%. For the same compound, the remaining activity at 10 µM (382 unique human kinases [10]) was 76.2%, the “% Enzyme Activity (relative to DMSO controls)” value (382 unique human kinases [11]) was 108.63% and the remaining activity at 10 µM (382 unique human kinases [11]) was 110%. The “% Enzyme Activity (relative to DMSO controls)” value (382 unique human kinases [12]) was 94.05%, the remaining activity at 10 µM (382 unique human kinases [12]) was 94.8% and the “% Enzyme Activity (relative to DMSO controls)” value (382 unique human kinases [13]) was 93.01%. For the same compound, the remaining activity at 10 µM (382 unique human kinases [13]) was 95.1%.
With CCNC(=O)c1noc(-c2cc(C(C)C)c(O)cc2O)c1-c1ccc(CN2CCOCC2)cc1 [Luminespib (AUY-922)] the “% Enzyme Activity (relative to DMSO controls)” value (382 unique human kinases [1]) was 97.19%, the remaining activity at 10 µM (382 unique human kinases [1]) was 98.3% and the “% Enzyme Activity (relative to DMSO controls)” value (382 unique human kinases [2]) was 81.53%. For the same compound, the remaining activity at 10 µM (382 unique human kinases [2]) was 83.2%, the “% Enzyme Activity (relative to DMSO controls)” value (382 unique human kinases [3]) was 107.24% and the remaining activity at 10 µM (382 unique human kinases [3]) was 108%. For the same compound, the “% Enzyme Activity (relative to DMSO controls)” value (382 unique human kinases [4]) was 90.30%, the remaining activity at 10 µM (382 unique human kinases [4]) was 93.7% and the “% Enzyme Activity (relative to DMSO controls)” value (382 unique human kinases [5]) was 102.97%. The remaining activity at 10 µM (382 unique human kinases [5]) was 104%, the “% Enzyme Activity (relative to DMSO controls)” value (382 unique human kinases [6]) was 95.73% and the remaining activity at 10 µM (382 unique human kinases [6]) was 95.8%. The “% Enzyme Activity (relative to DMSO controls)” value (382 unique human kinases [7]) was 93.37%, the remaining activity at 10 µM (382 unique human kinases [7]) was 98.6% and the “% Enzyme Activity (relative to DMSO controls)” value (382 unique human kinases [8]; AMPK(A1/B1/G1), 10 uM) was 99.40%. For the same compound, the remaining activity at 10 µM (382 unique human kinases [8]; AMPK(A1/B1/G1), 10 uM) was 101%, the “% Enzyme Activity (relative to DMSO controls)” value (382 unique human kinases [8]; AMPK(A1/B1/G2), 10 uM) was 104.49% and the remaining activity at 10 µM (382 unique human kinases [8]; AMPK(A1/B1/G2), 10 uM) was 107%. The “% Enzyme Activity (relative to DMSO controls)” value (382 unique human kinases [8]; AMPK(A1/B2/G1), 10 uM) was 96.58%, the remaining activity at 10 µM (382 unique human kinases [8]; AMPK(A1/B2/G1), 10 uM) was 97.6% and the “% Enzyme Activity (relative to DMSO controls)” value (382 unique human kinases [8]; [14]) was 118.21%. The remaining activity at 10 µM (382 unique human kinases [8]; [14]) was 119%.
CC(C)c1cc(-c2n[nH]c(=O)n2-c2ccc3c(ccn3C)c2)c(O)cc1O [Ganetespib] was tested, and the remaining activity at 10 µM (382 unique human kinases [9]) was 90.7%, the remaining activity at 10 µM (382 unique human kinases [10]) was 41.2% and the remaining activity at 10 µM (382 unique human kinases [11]) was 98.6%. The remaining activity at 10 µM (382 unique human kinases [12]) was 45.9% and the remaining activity at 10 µM (382 unique human kinases [13]) was 93.8%.
